System: bacteria
Experiment: Non-antimicrobial dose and plasma antimicrobial threshold of antibacterial tetracyclines
Protocol: For example, tetracycline compounds that have significant antibacterial activity may be administered in an amount which is 10-80% of the antibacterial amount. More preferably, the antibacterial tetracycline compound is administered in an amount which is 40-70% of the antibacterial amount.
Examples of antibacterial tetracyclines administered in a non-antibacterial amount are depicted in Table 1, as follows: […]

Compound	Plasma Antimicrobial Threshold Level	Maximum Non-Antimicrobial Dose (twice daily)	Maximum Non-Antimicrobial Dose (once daily)
C[C@H]1c2cccc(O)c2C(=O)C2=C(O)[C@]3(O)C(=O)C(C(N)=O)=C(O)[C@@H](N(C)C)[C@@H]3[C@@H](O)[C@@H]21 [Doxycycline]	1.0 µg/mL	20 mg b.i.d	
CN(C)c1ccc(O)c2c1C[C@H]1C[C@H]3[C@H](N(C)C)C(O)=C(C(N)=O)C(=O)[C@@]3(O)C(O)=C1C2=O [Minocycline]	0.8 µg/mL		38 mg q.d.
CN(C)[C@@H]1C(O)=C(C(N)=O)C(=O)[C@@]2(O)C(O)=C3C(=O)c4c(O)cccc4[C@@](C)(O)[C@H]3C[C@@H]12 [Tetracycline]	0.5 µg/mL		60 mg q.d.

Source: patent US20080233151A1, “Use of non-antibacterial tetracycline analogs and formulations thereof for the treatment of bacterial exotoxins” (priority 2002, published 2008)
